Experimental data taken from patent publication US20170022171A1, “2,5-DISUBSTITUTED CYCLOPENTANECARBOXYLIC ACIDS AND THEIR USE” (Bayer Pharma Aktiengesellschaft, priority 2014, published 2017).

Experiments:
[1] = target: T1, mouse MMP-3 (Mus musculus, UniProt P28862); test: In vitro mouse MMP-3 inhibition test; assay type: biochemical
T1 construct: purchased R&D Systems 548-MP
Text: The MMP-mediated amidolytic cleavage of a suitable peptide substrate leads to an increase in fluorescent light here too. The signal intensity of the fluorescent light is directly proportional to the enzyme activity. The active concentration of a test compound at which half the enzyme is inhibited (50% signal intensity of the fluorescent light) is reported as the IC50 value.
Recombinant mouse MMP-3 (from R&D Systems, 548-MP) is chemically activated in accordance with the manufacturer's instructions using APMA. 1 μl of the test compound to be analysed (as a solution in DMSO, suitable concentrations, for example, 1 nM to 30 μM) is pipetted into 24 μl of activated enzyme (final concentration, for example, 0.5 nM) in reaction buffer (50 mM Tris/HCl pH 7.5, 10 mM CaCl2, 150 mM NaCl, 0.05% Brij®-35) in a white 384-hole microtiter plate (MTP). The enzymatic reaction is started by adding the intramolecularly quenched Mca-Arg-Pro-Lys-Pro-Val-Glu-Nval-Trp-Arg-Lys(Dnp)-NH2 substrate (final concentration, for example, 5 μM; R&D Systems, ES-002), so as to result in a total test volume of 50 μl. The course of the MMP-3 reaction is measured by measuring the fluorescence intensity (excitation 320 nm, emission 410 nm) over a suitable period of time (for example over 120 min at a temperature of 32° C.).

[2] = test system: rat hepatocytes; test: Hepatocyte assay for determination of metabolic stability; assay type: in vitro ADME; details: after incubation with rat hepatocytes
Protocol: The metabolic stability of test compounds towards hepatocytes is determined by incubating the compounds at low concentrations (preferably below or around 1 μM) and at low cell counts (preferably at 1*10^6 cells/ml) in order to ensure maximum linearity of kinetic conditions in the experiment. Seven samples from the incubation solution are taken for the LC-MS analysis within a fixed time pattern, in order to determine the half-life (i.e. the degradation) of the particular compound. This half life is used to calculate various “Clearance” parameters (CL) and “Fmax” values (see below).
The CL and Fmax values are a measure of the phase 1 and phase 2 metabolism of the compounds in the hepatocytes. In order to minimize the influence of the organic solvent on the enzymes in the incubation batches, the concentration thereof is generally limited to 1% (acetonitrile) or 0.1% (DMSO).
For all species and breeds, a hepatocyte cell count in the liver of 1.1*10^8 cells/g of liver is expected.
The parameters calculated and the meanings thereof are: • Fmax well-stirred [%] maximum possible bioavailability after oral administration • Calculation: (1−CLblood well-stirred/QH)*100 • CLblood well-stirred [L/(h*kg)] calculated blood clearance (well-stirred model) • Calculation: (QH*CL′intrinsic)/(QH+CL′intrinsic) • CL′intrinsic[ml/(min*kg)] maximum ability of the liver (of the hepatocytes) to metabolize a compound (assuming that the liver blood flow is not rate-limiting) • Calculation: CL′intrinsic, apparent*species-specific hepatocyte count [1.1*10^8/g liver]*species-specific liver weight [g/kg] • CL′intrinsic, apparent[ml/(min*mg)] normalizes the elimination constant by dividing it by the hepatocyte cell count x used (x*10^6/ml) • Calculation: ke1[1/min]/(cell count [x*10^6]/incubation volume [ml]) • (QH=species-specific liver blood flow).

T1 sequence (P28862 100-477): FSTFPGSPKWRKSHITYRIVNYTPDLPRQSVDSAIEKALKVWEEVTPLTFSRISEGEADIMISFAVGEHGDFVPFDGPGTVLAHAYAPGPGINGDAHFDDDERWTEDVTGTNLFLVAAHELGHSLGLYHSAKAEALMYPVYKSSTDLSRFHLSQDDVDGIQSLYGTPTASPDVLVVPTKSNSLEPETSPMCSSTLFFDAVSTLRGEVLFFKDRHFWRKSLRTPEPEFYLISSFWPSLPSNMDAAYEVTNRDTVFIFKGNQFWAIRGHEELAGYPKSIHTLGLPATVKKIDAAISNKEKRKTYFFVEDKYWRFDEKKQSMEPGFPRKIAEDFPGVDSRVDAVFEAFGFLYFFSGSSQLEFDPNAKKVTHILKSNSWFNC

IC50 [1]: 0.59 µM
CLblood (calculated blood clearance, well-stirred) [2]: 18.7 mL/min/kg
Fmax (maximum possible bioavailability after oral administration, well-stirred) [2]: 73.3%
SMILES: O=C(O)[C@H]1[C@H](Cn2nnc3ccc(C(F)(F)F)cc3c2=O)CC[C@@H]1C(=O)c1ccc(OCc2ccccc2)cc1 (racemic) [Example 11, (+/−)-(1RS,2RS,5SR)-2-[4-(Benzyloxy)benzoyl]-5-{[4-oxo-6-(trifluoromethyl)-1,2,3-benzotriazin-3(4H)-yl]methyl}cyclopentanecarboxylic acid]
